The target of the assay is T1, Human Recombinant Matriptase 2 (Homo sapiens, UniProt Q8IU80).
T1 construct: purchased Enzo Life Sciences (an in-house preparation was also used) ALX-201-752-1
T1 sequence (Q8IU80 1-811): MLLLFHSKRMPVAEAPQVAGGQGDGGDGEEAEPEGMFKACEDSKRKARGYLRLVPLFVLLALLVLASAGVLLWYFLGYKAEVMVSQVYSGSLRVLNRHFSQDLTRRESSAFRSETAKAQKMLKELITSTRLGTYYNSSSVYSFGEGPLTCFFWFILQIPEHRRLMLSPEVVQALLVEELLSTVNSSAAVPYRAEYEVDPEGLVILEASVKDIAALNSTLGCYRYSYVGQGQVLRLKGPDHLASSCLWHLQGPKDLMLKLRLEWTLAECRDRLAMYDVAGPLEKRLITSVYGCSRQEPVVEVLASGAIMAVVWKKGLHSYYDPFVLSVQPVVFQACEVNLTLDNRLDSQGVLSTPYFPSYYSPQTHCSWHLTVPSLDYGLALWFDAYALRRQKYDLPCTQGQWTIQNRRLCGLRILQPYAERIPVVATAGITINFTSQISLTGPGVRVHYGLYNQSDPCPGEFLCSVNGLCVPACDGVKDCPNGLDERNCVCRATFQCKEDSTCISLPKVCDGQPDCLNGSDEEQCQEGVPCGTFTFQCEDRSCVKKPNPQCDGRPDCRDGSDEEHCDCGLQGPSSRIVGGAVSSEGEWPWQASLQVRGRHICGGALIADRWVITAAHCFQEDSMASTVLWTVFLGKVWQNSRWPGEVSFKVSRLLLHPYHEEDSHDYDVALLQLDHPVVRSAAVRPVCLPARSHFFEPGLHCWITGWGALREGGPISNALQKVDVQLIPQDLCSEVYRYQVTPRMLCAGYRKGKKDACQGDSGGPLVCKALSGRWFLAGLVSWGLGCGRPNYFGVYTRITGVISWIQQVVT
Kind of assay: Matriptase 2 fluorescence based inhibition assay, Method B (50 mM TRIS pH 7.5, 150 mM NaCl, 0.01% gelatin). Type of assay: biochemical. Particulars: for inhibition at 1 µM: read-out: Mar-2 % inhibition at 1 uM. As for the experimental part: Test compounds were evaluated for their potential to inhibit Human Recombinant Matriptase 2 (in-house and commercial protein from Enzo Life Sciences—cat log -ALX-201-752-1) using fluorescence based assay. The concentration of Recombinant Matriptase 2 and the substrate used in the assay was: 7 nM (commercial) and 15 nM (Inhouse Matriptase 2) and 100 μM (Boc-Gln-Ala-Arg-7-amido-4-methyl coumarin hydrobromide—Cat log: B4153-Sigma and I-1550 from Bachem) respectively. The assay buffer used was 50 mM TRIS pH 7.5, 150 mM NaCl, 0.01% gelatin (G1393 Sigma). The assay was performed using 384 well black flat bottom plate from grenier (Cat log: 781076) at 25° C. The enzyme and compound preincubated for 30 mins, plate was read 60 mins after substrate addition at wavelength Ex: 360/Em:480 nm. The final assay volume of was 20 μl. Stock solution of compounds were initially prepared in DMSO and appropriate dilutions were made for screening and IC50 determination (final DMSO conc in the assay was 1%). All the measurements were carried out using the Spectramax M5, Molecular devices. The compounds were screened at 1 and 10 μM concentration and IC50 was determined for the interested compounds.
To determine IC50 values, dose response curves were generated by plotting percentage inhibition as a function of inhibitor concentration and the data was fitted to sigmoidal non-linear regression equation (variable slope) using Graph Pad prism software V7.

Setting [1] is: 1 uM compound, Assay Used = B (Method B).

Each structure is given as a SMILES string. Like-named read-outs stand apart in the source and are kept apart here.

In the case of `N=C(N)c1ccc2cc(C(=O)NC3CCNC(=O)C3)n(Cc3cc(Oc4ncccn4)cc4ccccc34)c2c1` (racemic) [Compound I-560], the inhibition (usually the drop in the measured response relative to a control, in per cent) at 1 µM (1 uM compound, Assay Used = B) lay within 50 to 75%.
On to `N=C(N)c1ccc2cc(C(=O)N[C@H]3CC[C@H](N)CC3)n(C[C@H]3CCCc4ccccc43)c2c1` (racemic) [Compound I-612], for which the inhibition at 1 µM under setting [1] lay within 25 to 50%.
Same read-out and setting: as for `N=C(N)c1ccc2cc(C(=O)O)n(C[C@H]3CCCc4ccccc43)c2c1` (racemic) [Compound I-613], the figure is 25 to 50%; as for `N=C(N)c1ccc2cc(C(=O)N[C@H]3CC[C@H](N)CC3)n(C[C@H]3CCc4ccccc43)c2c1` (racemic) [Compound I-616], 25 to 50%.
As for `CC(C)(C)OC(=O)NC(=N)c1ccc2cc(C(=O)N3CC[C@H](O)C3)n(Cc3cccc4ccccc34)c2c1` (stereo in doubt) [Compound I-424], the inhibition at 1 µM (1 uM compound, Assay Used = B) was in the range of 0 to 25%.
Take `CC(C)(C)OC(=O)NC(=N)c1ccc2cc(C(=O)N3CC[C@H](NC(=O)OC(C)(C)C)C3)n(Cc3cccc4ccccc34)c2c1` (stereo in doubt) [Compound I-428]: the inhibition at 1 µM (1 uM compound, Assay Used = B) lay within 0 to 25%.
On the same count and under the same terms, next, `N=C(N)c1ccc2cc(C(=O)NC34CC5C[C@H](C3)C[C@](O)(C5)C4)n(Cc3cccc4ccccc34)c2c1` (stereo in doubt) [Compound I-449]: 25 to 50%.
As for `N=C(N)c1ccc2cc(C(=O)N[C@H]3CC[C@H](N)CC3)n(S(=O)(=O)c3ccc4ccccc4c3)c2c1` [Compound I-37], the inhibition at 1 µM (1 uM, Assay Used B) is 0 to 25%.
For `N=C(N)c1ccc2cc(C(=O)N[C@H]3CC[C@H](N)CC3)n(Cc3ccc4ccccc4c3)c2c1` [Compound I-233], under “at 1 uM, Assay Used = B”, the inhibition at 1 µM is 25 to 50%.
In the case of `N=C(N)c1ccc(CNC(=O)c2cc3ccc(C(=N)N)cc3n2Cc2cccc3ccccc23)cc1` [Compound I-395], the inhibition at 1 µM (at 1 uM, Assay Used = B) was in the range of 75 to 100%.
The same measure, in the same setting: as for `N=C(N)c1ccc2cc(C(=O)N[C@H]3CC[C@H](N)CC3)n(S(=O)(=O)c3cccc4ccccc34)c2c1` [Compound I-396, N-((1r,4r)-4-aminocyclohexyl)-6-carbamimidoyl-1-(naphthalen-1-ylsulfonyl)-1H-indole-2-carboxamide], the figure is 25 to 50%.
Turning to `CC(C)(C)OC(=O)N[C@H]1CC[C@H](NC(=O)c2cc3ccc(C(=N)N)cc3n2Cc2ccc3ccccc3c2)CC1` [Compound I-402, tert-butyl ((1r,4r)-4-(6-carbamimidoyl-1-(naphthalen-2-ylmethyl)-1H-indole-2-carboxamido)cyclohexyl) carbamate], the “Mar-2 % inhibition at 1 uM” value (1 uM compound, Assay Used = B) is recorded as “A (A represents 0%≤I≤25%)”.
Turning to `CC(C)(C)OC(=O)N[C@H]1CC[C@H](NC(=O)c2cc3ccc(C(=N)N)cc3n2Cc2cccc3ccccc23)CC1` [Compound I-403], the “Mar-2 % inhibition at 1 uM” value (1 uM compound, Assay Used = B) was “A (A represents 0%≤I≤25%)”.
For the molecule `CC(C)(C)OC(=O)N[C@H]1CC[C@H](NC(=O)c2cc3ccc(C(=N)N)cc3n2CCc2cccc3ccccc23)CC1` [Compound I-404], for the setting “1 uM compound, Assay Used = B”, the inhibition at 1 µM was 0 to 25%.
Still for that read-out and setting: next, `CC(C)(C)OC(=O)N[C@H]1CC[C@H](NC(=O)c2cc3ccc(C(=N)N)cc3n2CCc2ccc3ccccc3c2)CC1` [Compound I-405]: 25 to 50%; `N=C(N)c1ccc2cc(C(=O)N[C@H]3CC[C@H](N)CC3)n(Cc3cccc4ccccc34)c2c1` [Compound I-407]: 75 to 100%; `N=C(N)c1ccc2cc(C(=O)N[C@H]3CC[C@H](N)CC3)n(CCc3cccc4ccccc34)c2c1` [Compound I-409]: 25 to 50%.
Same read-out and setting: as for `N=C(N)c1ccc2cc(C(=O)N[C@H]3CC[C@H](N)CC3)n(CCc3ccc4ccccc4c3)c2c1` [Compound I-410], the figure is 25 to 50%.
Same read-out and setting: next, `CCNC(=N)c1ccc2cc(C(=O)N[C@H]3CC[C@H](NC(=O)OC(C)(C)C)CC3)n(Cc3ccc4ccccc4c3)c2c1` [Compound I-411, Tert-butyl ((1r,4r)-4-(6-(N-ethylcarbamimidoyl)-1-(naphthalen-2-ylmethyl)-1H-indole-2-carboxamido)cyclohexyl)carbamate]: 0 to 25%; `CNC(=N)c1ccc2cc(C(=O)NC3CCC(NC(=O)OC(C)(C)C)CC3)n(Cc3ccc4ccccc4c3)c2c1` (centres unmarked) [Compound I-412]: 25 to 50%.
As for `CCNC(=N)c1ccc2cc(C(=O)N[C@H]3CC[C@H](N)CC3)n(Cc3ccc4ccccc4c3)c2c1` [Compound I-413, N-((1r,4r)-4-aminocyclohexyl)-6-(N-ethylcarbamimidoyl)-1-(naphthalen-2-ylmethyl)-1H-indole-2-carboxamide], under “1 uM compound, Assay Used = B”, the inhibition at 1 µM was in the range of 25 to 50%.
Same read-out and setting: next, `CNC(=N)c1ccc2cc(C(=O)N[C@H]3CC[C@H](N)CC3)n(Cc3ccc4ccccc4c3)c2c1` [Compound I-414]: 0 to 25%.
For `N=C(N)c1ccc2cc(C(=O)N[C@H]3CC[C@H](N)CC3)n(-c3cccc4ccccc34)c2c1` [Compound I-415, N-((1r,4r)-4-aminocyclohexyl)-6-carbamimidoyl-1-(naphthalen-1-yl)-1H-indole-2-carboxamide], under “1 uM compound, Assay Used = B”, the inhibition at 1 µM fell in the range of 25 to 50%.
Same read-out and setting: next, `CC(C)(C)OC(=O)N[C@H]1CC[C@H](NC(=O)c2cc3ccc(C(=N)N)cc3n2-c2ccc3ccccc3c2)CC1` [Compound I-416]: 0 to 25%; `NC(=O)c1ccc2cc(C(=O)N[C@H]3CC[C@H](N)CC3)n(-c3cccc4ccccc34)c2c1` [Compound I-417, N2-((1r,4r)-4-aminocyclohexyl)-1-(naphthalen-1-yl)-1H-indole-2,6-dicarboxamide]: 0 to 25%; `N=C(N)c1ccc2cc(C(=O)NC3CCNCC3)n(Cc3cccc4ccccc34)c2c1` [Compound I-418, 6-carbamimidoyl-1-(naphthalen-1-ylmethyl)-N-(piperidin-4-yl)-1H-indole-2-carboxamide]: 75 to 100%.
Still for that read-out and setting: as for `CC(C)(C)OC(=O)NC(=N)c1ccc2cc(C(=O)Nc3ccc(NC(=O)c4ccccn4)cc3)n(Cc3cccc4ccccc34)c2c1` [Compound I-419], the figure is 0 to 25%.
The same measure, in the same setting: next, `CCOC(=O)N1CCC(NC(=O)c2cc3ccc(C(=N)NC(=O)OC(C)(C)C)cc3n2Cc2cccc3ccccc23)CC1` [Compound I-420]: 0 to 25%; `CC(C)(C)OC(=O)NC(=N)c1ccc2cc(C(=O)NCc3ccc(CO)cc3)n(Cc3cccc4ccccc34)c2c1` [Compound I-421]: 0 to 25%; `CC(C)(C)OC(=O)NC(=N)c1ccc2cc(C(=O)N[C@H]3CC[C@H](O)CC3)n(Cc3cccc4ccccc34)c2c1` [Compound I-422]: 25 to 50%.
With `CC(C)(C)OC(=O)NC(=N)c1ccc2cc(C(=O)N3CCCN(C(=O)OC(C)(C)C)CC3)n(Cc3cccc4ccccc34)c2c1` [Compound I-423], the inhibition at 1 µM (1 uM compound, Assay Used = B) was in the range of 0 to 25%.
Still for that read-out and setting: as for `CN1CCN(C(=O)c2cc3ccc(C(=N)NC(=O)OC(C)(C)C)cc3n2Cc2cccc3ccccc23)CC1` [Compound I-425], the figure is 0 to 25%; as for `CC(C)(C)OC(=O)NC(=N)c1ccc2cc(C(=O)N3CCC(CO)CC3)n(Cc3cccc4ccccc34)c2c1` [Compound I-426], 0 to 25%; as for `CC(C)(C)OC(=O)NC(=N)c1ccc2cc(C(=O)NC3CCCN(C(=O)OC(C)(C)C)C3)n(Cc3cccc4ccccc34)c2c1` (centres unmarked) [Compound I-427], 0 to 25%.
With `N=C(N)c1ccc2cc(C(=O)N3CCC(CN)CC3)n(Cc3cccc4ccccc34)c2c1` [Compound I-429], the inhibition at 1 µM (1 uM compound, Assay Used = B) was 50 to 75%.
Take `N=C(N)c1ccc2cc(C(=O)Nc3ccc(NC(=O)c4ccccn4)cc3)n(Cc3cccc4ccccc34)c2c1` [Compound I-430]: for the setting “1 uM compound, Assay Used = B”, the inhibition at 1 µM fell in the range of 50 to 75%.
Same read-out and setting: as for `N=C(N)c1ccc2cc(C(=O)N3CCN(C(=O)CN)CC3)n(Cc3cccc4ccccc34)c2c1` [Compound I-431], the figure is 50 to 75%.
On the same count and under the same terms, next, `CN1CCC(NC(=O)c2cc3ccc(C(=N)N)cc3n2Cc2cccc3ccccc23)CC1` [Compound I-432]: 75 to 100%.

These data come from patent US12428415B2, “Matriptase 2 inhibitors and uses thereof” (Disc Medicine, Inc., priority 2018, dated 2025).
